Source: ChEMBL document CHEMBL4602617, “Discovery and optimization of heteroaryl piperazines as potent and selective PI3Kδ inhibitors” (Bioorg Med Chem Lett, 2020)

How the values were obtained:
[1] = target: PI3-kinase p110-delta/p85-alpha (Homo sapiens, UniProt O00329); assay: Inhibition of recombinant human full-length N-terminal GST-tagged p110delta/untagged full-length p85alpha expressed in baculovirus infected Sf21 cells using PIP2 as substrate preincubated for 15 mins followed by substrate addition and measured after 1 hr by HTRF assay
Homo sapiens = organism: Homo sapiens; assay: Selectivity index, ratio IC50 for inhibition of recombinant human full-length N-terminal His6-tagged p110beta/untagged full-length p85alpha expressed in baculovirus infected Sf21 cells to ratio IC50 for inhibition of recombinant human full-length N-terminal GST-tagged p110delta/untagged full-length p85alpha expressed in baculovirus infected Sf21 cells
[2] = Volume of drug distribution in dog at 0.5 mg/kg, iv or 1 mg/kg, po; type: ADME, organism-based, Canis lupus familiaris; details: in vivo
[3] = target: Calcium/calmodulin-dependent protein kinase type II subunit delta (Homo sapiens, UniProt Q13557); assay: Inhibition of recombinant full length human His-tagged CAMK2D expressed in baculovirus expression system using serine/threonine-04 peptide as substrate incubated for 60 mins in presence of ATP by Z'-LYTE assay
Aurora kinase B = Aurora kinase B (Homo sapiens, UniProt Q96GD4); assay: Inhibition of recombinant full length His-tagged human AURKB expressed in baculovirus expression system using Ser/Thr-01 peptide as substrate incubated for 60 mins in presence of ATP by Z'-LYTE assay
Aurora kinase B, sequence (Q96GD4 whole entry): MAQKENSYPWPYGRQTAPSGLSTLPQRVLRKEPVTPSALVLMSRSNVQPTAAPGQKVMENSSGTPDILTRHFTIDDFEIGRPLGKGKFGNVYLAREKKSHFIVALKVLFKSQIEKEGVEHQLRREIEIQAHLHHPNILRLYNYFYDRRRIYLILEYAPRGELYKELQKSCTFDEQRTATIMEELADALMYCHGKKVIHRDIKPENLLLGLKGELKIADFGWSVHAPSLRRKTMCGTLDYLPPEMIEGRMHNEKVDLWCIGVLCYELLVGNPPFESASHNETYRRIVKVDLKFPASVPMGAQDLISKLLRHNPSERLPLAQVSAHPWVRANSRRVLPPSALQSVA

[4] = target: RAC-beta serine/threonine-protein kinase (Homo sapiens, UniProt P31751); assay: Inhibition of recombinant full length human His-tagged AKT2 expressed in baculovirus expression system using Ser/Thr-06 peptide as substrate incubated for 60 mins in presence of ATP by Z'-LYTE assay
RAC-beta serine/threonine-protein kinase, sequence (P31751 whole entry): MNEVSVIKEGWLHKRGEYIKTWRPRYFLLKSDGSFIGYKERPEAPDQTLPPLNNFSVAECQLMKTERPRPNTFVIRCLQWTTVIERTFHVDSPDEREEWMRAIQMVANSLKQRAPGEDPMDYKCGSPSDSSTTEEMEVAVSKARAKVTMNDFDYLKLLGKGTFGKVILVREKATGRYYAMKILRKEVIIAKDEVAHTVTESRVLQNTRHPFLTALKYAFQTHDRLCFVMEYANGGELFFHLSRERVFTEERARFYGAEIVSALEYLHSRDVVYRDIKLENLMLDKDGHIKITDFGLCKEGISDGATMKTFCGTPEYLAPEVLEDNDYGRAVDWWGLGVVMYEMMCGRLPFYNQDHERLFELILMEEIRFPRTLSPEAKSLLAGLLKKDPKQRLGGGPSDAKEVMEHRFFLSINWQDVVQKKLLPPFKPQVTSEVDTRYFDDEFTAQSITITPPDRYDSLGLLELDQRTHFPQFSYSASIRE

[5] = target: RAC-alpha serine/threonine-protein kinase (Homo sapiens, UniProt P31749); assay: Inhibition of recombinant full length human His-tagged AKT1 expressed in baculovirus expression system using serine/threonine-06 peptide as substrate incubated for 60 mins in presence of ATP by Z'-LYTE assay
RAC-alpha serine/threonine-protein kinase, sequence (P31749 whole entry): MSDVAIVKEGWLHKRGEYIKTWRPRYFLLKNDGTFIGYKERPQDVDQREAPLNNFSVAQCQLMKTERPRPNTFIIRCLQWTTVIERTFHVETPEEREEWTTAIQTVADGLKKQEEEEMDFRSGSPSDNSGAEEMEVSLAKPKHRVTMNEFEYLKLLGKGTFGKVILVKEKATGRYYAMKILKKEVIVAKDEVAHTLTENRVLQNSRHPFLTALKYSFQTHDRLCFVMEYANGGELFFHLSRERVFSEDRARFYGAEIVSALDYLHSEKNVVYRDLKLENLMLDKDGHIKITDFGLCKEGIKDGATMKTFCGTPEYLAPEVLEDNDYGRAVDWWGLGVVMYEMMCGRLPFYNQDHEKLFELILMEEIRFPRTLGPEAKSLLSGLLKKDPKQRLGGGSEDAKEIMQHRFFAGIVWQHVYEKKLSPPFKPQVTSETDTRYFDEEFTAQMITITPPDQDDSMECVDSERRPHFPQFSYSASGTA

[6] = target: G protein-coupled receptor kinase 4 (Homo sapiens, UniProt P32298); assay: Inhibition of recombinant full length human GST-tagged GRK4 expressed in baculovirus expression system using serine/threonine-16 peptide as substrate incubated for 60 mins in presence of ATP by Z'-LYTE assay
G protein-coupled receptor kinase 4, sequence (P32298 whole entry): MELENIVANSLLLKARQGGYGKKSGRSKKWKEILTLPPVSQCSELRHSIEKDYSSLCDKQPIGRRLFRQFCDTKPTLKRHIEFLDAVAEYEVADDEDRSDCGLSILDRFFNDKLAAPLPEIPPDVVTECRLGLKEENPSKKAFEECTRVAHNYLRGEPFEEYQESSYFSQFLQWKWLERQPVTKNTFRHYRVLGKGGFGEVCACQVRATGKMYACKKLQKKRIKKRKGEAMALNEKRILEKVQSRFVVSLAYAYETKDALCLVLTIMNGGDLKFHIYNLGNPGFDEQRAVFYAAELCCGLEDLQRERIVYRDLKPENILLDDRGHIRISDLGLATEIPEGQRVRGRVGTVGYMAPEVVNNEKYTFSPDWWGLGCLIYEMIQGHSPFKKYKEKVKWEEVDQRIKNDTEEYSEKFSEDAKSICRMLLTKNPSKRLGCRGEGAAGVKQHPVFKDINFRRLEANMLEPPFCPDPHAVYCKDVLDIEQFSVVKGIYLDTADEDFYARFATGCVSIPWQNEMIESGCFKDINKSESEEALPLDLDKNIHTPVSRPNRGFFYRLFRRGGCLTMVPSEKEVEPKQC

Cavia porcellus = organism: Cavia porcellus; assay: Displacement of [3H]nitrobenzylthioinosine from adenosine transporter in guinea pig cerebral cortical membranes at 10 uM after 30 mins by radiometric scintillation analysis relative to control
[7] = target: 5-hydroxytryptamine receptor 3A (Homo sapiens) (UniProt P46098); assay: Displacement of [3H]GR-65630 from full length human recombinant 5HT3 receptor expressed in HEK293 cells at 10 uM measured after 60 mins by radiometric scintillation analysis relative to control; type: cell-based
[8] = target: Kappa-type opioid receptor (Homo sapiens) (UniProt P41145); assay: Displacement of [3H]diprenorphine from full length human recombinant KOP receptor expressed in HEK293 cells at 10 uM measured after 60 mins by radiometric scintillation analysis relative to control; type: cell-based
[9] = target: Neuropeptide Y receptor type 2 (Homo sapiens) (UniProt P49146); assay: Displacement of [[125I]peptide YY from full length human KAN-TS cell membrane derived Y2 neuropeptide receptor at 10 uM measured after 120 mins by radiometric scintillation analysis relative to control
Neuropeptide Y receptor type 2 (Homo sapiens), sequence (P49146 whole entry): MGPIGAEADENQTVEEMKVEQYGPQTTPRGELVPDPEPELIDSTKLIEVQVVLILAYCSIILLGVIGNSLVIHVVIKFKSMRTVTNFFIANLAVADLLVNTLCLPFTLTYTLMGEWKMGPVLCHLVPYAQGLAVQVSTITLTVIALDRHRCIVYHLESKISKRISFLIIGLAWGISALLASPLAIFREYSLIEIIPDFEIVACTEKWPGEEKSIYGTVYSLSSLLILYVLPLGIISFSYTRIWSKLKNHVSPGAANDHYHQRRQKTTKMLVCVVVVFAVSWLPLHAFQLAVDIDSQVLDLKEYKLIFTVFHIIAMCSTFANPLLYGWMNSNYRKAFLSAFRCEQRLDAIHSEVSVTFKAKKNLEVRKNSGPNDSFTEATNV

[10] = target: Muscarinic acetylcholine receptor M4 (Homo sapiens) (UniProt P08173); assay: Displacement of [3H]N-Methylscopolamine from full length human recombinant Muscarinic M4 receptor expressed in CHOK1 cells at 10 uM measured after 120 mins by radiometric scintillation analysis relative to control; type: cell-based; details: CHO-K1
Rattus norvegicus = organism: Rattus norvegicus; assay: Displacement of [3H]TBOB from GABAA chloride channel receptor in Wistar rat whole brain membranes at 10 uM measured after 120 mins by radiometric scintillation analysis relative to control; type: cell membranes; details: Membrane
[11] = target: Endothelin receptor type B (Homo sapiens) (UniProt P24530); assay: Displacement of [125I]endothelin-1 from recombinant full length human recombinant ETB receptor expressed in CHO-K1 cells at 10 uM measured after 120 mins by radiometric scintillation analysis relative to control; type: cell-based
[12] = target: Casein kinase II subunit alpha (Homo sapiens, UniProt P68400); assay: Inhibition of recombinant human full-length His-tagged CSNK2A1 expressed in baculovirus expression system using FRET-labeled Ser/Thr 11 peptide as substrate measured after 1 hr in presence of ATP by Z'-lyte assay
[13] = target: Insulin receptor-related protein (Homo sapiens, UniProt P14616); assay: Inhibition of recombinant human GST-tagged INSRR cytoplasmic domain expressed in baculovirus expression system using tyrosine-1 peptide as substrate incubated for 60 mins in presence of ATP by Z'-LYTE assay
[14] = target: Interleukin-1 receptor-associated kinase 4 (Homo sapiens, UniProt Q9NWZ3); assay: Inhibition of recombinant full length human His-tagged IRAK4 expressed in baculovirus expression system using serine/threonine-7 peptide as substrate incubated for 60 mins in presence of ATP by Z'-LYTE assay
[15] = target: Tyrosine-protein kinase Lyn (Homo sapiens, UniProt P07948); assay: Inhibition of recombinant full length human His-tagged LYN-A expressed in baculovirus expression system using tyrosine-2 peptide as substrate incubated for 60 mins in presence of ATP by Z'-LYTE assay
Tyrosine-protein kinase Lyn, sequence (P07948 whole entry, the tested form may be a part): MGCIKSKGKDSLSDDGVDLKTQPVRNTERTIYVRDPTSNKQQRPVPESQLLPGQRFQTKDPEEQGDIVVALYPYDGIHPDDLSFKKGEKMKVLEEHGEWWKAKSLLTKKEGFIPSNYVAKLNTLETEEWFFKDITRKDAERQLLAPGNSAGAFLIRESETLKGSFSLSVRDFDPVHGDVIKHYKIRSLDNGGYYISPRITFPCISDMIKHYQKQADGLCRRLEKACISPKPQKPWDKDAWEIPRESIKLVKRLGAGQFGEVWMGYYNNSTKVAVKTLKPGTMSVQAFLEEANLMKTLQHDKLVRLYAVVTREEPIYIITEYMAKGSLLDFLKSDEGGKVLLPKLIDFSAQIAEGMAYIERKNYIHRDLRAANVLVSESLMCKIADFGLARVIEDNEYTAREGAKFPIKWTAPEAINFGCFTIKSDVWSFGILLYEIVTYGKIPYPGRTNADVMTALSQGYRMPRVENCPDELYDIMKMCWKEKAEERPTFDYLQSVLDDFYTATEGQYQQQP

[16] = target: NT-3 growth factor receptor (Homo sapiens, UniProt Q16288); assay: Inhibition of recombinant human His-tagged TrkC cytoplasmic domain (510 to 825 residues) expressed in baculovirus using tyr 01 as substrate incubated for 1 hr in presence of ATP by Z'-Lyte assay
[17] = target: Serine/threonine-protein kinase PAK 2 (Homo sapiens, UniProt Q13177); assay: Inhibition of recombinant full length human GST-tagged PAK2 expressed in baculovirus expression system using serine/threonine-20 peptide as substrate incubated for 60 mins in presence of ATP by Z'-LYTE assay
Serine/threonine-protein kinase PAK 2, sequence (Q13177 whole entry): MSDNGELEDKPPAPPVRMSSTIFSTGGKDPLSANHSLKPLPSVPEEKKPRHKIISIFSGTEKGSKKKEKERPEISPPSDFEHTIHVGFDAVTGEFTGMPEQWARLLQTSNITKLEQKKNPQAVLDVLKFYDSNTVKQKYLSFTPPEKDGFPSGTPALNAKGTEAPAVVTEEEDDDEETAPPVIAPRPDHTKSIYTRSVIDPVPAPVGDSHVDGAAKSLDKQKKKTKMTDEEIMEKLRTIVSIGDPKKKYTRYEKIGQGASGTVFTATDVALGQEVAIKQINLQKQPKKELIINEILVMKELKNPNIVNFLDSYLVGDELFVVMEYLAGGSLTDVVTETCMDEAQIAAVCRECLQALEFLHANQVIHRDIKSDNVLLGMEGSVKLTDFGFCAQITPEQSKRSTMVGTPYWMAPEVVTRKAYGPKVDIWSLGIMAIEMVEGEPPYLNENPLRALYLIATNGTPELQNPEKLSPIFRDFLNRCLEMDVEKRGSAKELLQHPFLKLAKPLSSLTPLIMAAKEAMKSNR

[18] = target: Serine/threonine-protein kinase N1 (Homo sapiens, UniProt Q16512); assay: Inhibition of recombinant full length GST-tagged human PKN1 expressed in baculovirus expression system using Ser/Thr 07 as substrate in presence of ATP after 1 hr by Z'-LYTE assay
Serine/threonine-protein kinase N1, sequence (Q16512 whole entry): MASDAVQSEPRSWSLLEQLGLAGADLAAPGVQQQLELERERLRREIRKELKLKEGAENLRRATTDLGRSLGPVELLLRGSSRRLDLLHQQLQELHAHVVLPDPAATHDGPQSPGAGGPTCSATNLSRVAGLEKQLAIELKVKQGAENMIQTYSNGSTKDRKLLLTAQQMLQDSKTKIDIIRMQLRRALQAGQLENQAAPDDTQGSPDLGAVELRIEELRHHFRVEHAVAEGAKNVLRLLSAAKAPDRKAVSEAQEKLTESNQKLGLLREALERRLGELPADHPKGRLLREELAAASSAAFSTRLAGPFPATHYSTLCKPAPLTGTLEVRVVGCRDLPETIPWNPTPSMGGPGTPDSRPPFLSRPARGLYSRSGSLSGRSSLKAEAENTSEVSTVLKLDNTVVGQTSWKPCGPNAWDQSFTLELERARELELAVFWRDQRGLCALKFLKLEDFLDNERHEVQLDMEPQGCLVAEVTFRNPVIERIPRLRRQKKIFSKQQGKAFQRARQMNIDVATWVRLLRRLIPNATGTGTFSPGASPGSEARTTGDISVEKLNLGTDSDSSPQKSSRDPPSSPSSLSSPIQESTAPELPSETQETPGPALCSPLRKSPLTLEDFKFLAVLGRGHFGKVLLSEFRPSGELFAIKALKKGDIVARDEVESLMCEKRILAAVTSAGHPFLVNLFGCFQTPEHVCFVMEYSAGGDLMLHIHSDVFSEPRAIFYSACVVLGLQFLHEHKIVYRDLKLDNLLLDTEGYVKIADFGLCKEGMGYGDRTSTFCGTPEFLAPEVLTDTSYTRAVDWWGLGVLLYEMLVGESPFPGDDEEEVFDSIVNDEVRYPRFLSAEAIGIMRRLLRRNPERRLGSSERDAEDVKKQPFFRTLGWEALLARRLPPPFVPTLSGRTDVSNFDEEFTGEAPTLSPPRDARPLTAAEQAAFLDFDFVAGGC

[19] = target: Protein kinase C alpha type (Homo sapiens, UniProt P17252); assay: Inhibition of recombinant human GST-tagged PKCalpha expressed in insect expression system using serine/threonine-7 peptide as substrate incubated for 60 mins in presence of ATP by Z'-LYTE assay
[20] = target: Serine/threonine-protein kinase D3 (Homo sapiens, UniProt O94806); assay: Inhibition of recombinant full length human GST-tagged PKD3 expressed in baculovirus expression system using serine/threonine-17 peptide as substrate incubated for 60 mins in presence of ATP by Z'-LYTE assay
[21] = target: Ribosomal protein S6 kinase alpha-1 (Homo sapiens, UniProt Q15418); assay: Inhibition of recombinant full length human His-tagged RPS6KA1 expressed in baculovirus expression system using […] peptide as substrate incubated for 60 mins in presence of ATP by Z'-LYTE assay
Ribosomal protein S6 kinase alpha-1, sequence (Q15418 whole entry): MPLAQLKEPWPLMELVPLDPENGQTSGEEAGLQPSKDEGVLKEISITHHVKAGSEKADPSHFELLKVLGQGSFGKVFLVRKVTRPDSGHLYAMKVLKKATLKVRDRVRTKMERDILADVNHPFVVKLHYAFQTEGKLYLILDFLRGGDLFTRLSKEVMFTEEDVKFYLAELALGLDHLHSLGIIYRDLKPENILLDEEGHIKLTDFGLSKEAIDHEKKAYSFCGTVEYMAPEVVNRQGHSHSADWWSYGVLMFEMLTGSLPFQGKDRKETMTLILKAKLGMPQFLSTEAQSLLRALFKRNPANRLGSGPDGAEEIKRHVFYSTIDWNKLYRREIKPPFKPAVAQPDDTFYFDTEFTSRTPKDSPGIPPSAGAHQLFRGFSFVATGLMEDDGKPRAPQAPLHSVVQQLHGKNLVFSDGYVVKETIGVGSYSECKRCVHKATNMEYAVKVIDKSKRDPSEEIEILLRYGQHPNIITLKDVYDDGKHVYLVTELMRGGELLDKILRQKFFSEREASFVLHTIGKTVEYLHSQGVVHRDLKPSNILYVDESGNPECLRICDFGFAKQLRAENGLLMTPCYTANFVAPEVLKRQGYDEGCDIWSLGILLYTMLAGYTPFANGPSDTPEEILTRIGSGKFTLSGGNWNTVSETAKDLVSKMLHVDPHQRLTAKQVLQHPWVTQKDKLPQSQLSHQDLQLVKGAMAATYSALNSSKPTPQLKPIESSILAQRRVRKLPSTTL

SRSF protein kinase 1 = SRSF protein kinase 1 (Homo sapiens, UniProt Q96SB4); assay: Inhibition of recombinant full length human His-tagged SRPK1 expressed in baculovirus expression system using serine/threonine-18 peptide as substrate incubated for 60 mins in presence of ATP by Z'-LYTE assay

Compound: C[C@@H]1C[C@H]1C(=O)N1CCN(c2cnc(C#N)c(-c3cnn(C)c3)n2)C[C@H]1C
- IC50 [1]: 0.009 µM
- Ratio IC50 (Homo sapiens): 2990
- Vd [2]: 1.1 L/kg
- IC50 [3]: > 100 µM
- IC50 (Aurora kinase B): > 100 µM
- IC50 [4]: > 100 µM
- IC50 [5]: > 100 µM
- IC50 [6]: 34.7 µM
- inhibition (Cavia porcellus): 41%
- inhibition [7]: 9%
- inhibition [8]: 5%
- inhibition [9]: -2%
- inhibition [10]: 3%
- inhibition (Rattus norvegicus): -8%
- inhibition [11]: 2%
- IC50 [12]: > 100 µM
- IC50 [13]: > 100 µM
- IC50 [14]: > 100 µM
- IC50 [15]: > 100 µM
- IC50 [16]: > 100 µM
- IC50 [17]: > 100 µM
- IC50 [18]: > 100 µM
- IC50 [19]: > 100 µM
- IC50 [20]: > 100 µM
- IC50 [21]: > 100 µM
- IC50 (SRSF protein kinase 1): > 100 µM
